From PMC12406203 (Journal of Medicinal Chemistry, 2025)

How the values were obtained:
Assay in all cases: KINOMEscan
Type in all cases: binding
PDGFRA = molecular target: T1, PDGFRA (Homo sapiens, UniProt P16234)
T1 construct: purchased Eurofins DiscoverX, LLC; host or cells: E. coli BL21-derived host (T7 phage) or HEK-293
Description: (§1) The kinase inhibition profile of compounds 94 and 95 was assessed against 103 protein kinases by Eurofins DiscoverX, LLC., using the KINOMEscan assay. Kinase-tagged T7 phage strains were grown in parallel in 24-well blocks in an E. coli host derived from the BL21 strain. E. coli were grown to log-phase and infected with T7 phage from a frozen stock (multiplicity of infection = 0.4) and incubated with shaking at 32 °C until lysis (90–150 min). The lysates were centrifuged (6000g) and filtered (0.2 μm) to remove cell debris. The remaining kinases were produced in HEK-293 cells and subsequently tagged with DNA for qPCR detection. […] The liganded beads were blocked with excess biotin and washed with blocking buffer (SeaBlock (Pierce), 1% BSA, 0.05% Tween 20, 1 mM DTT) to remove unbound ligand and to reduce nonspecific phage binding. […] Test compounds were prepared as 100× stocks in 100% DMSO and directly diluted into the assay. All reactions were performed in polypropylene 384-well plates in a final volume of 0.02 mL. […] The kinase concentration in the eluates was measured by qPCR.
(§2) The compound(s) were screened at the concentration(s) requested, and results for primary screen binding interactions are reported as RA (%), where lower numbers indicate stronger hits in the matrix. RA=(testcompoundsignal−PCsignal/NCsignal−PCsignal)×100

IKKβ = molecular target: T2, IKKβ (Homo sapiens, UniProt O14920)
T2 construct: purchased Eurofins DiscoverX, LLC; host or cells: E. coli (T7 phage) or HEK-293
T2 sequence (O14920 1-756): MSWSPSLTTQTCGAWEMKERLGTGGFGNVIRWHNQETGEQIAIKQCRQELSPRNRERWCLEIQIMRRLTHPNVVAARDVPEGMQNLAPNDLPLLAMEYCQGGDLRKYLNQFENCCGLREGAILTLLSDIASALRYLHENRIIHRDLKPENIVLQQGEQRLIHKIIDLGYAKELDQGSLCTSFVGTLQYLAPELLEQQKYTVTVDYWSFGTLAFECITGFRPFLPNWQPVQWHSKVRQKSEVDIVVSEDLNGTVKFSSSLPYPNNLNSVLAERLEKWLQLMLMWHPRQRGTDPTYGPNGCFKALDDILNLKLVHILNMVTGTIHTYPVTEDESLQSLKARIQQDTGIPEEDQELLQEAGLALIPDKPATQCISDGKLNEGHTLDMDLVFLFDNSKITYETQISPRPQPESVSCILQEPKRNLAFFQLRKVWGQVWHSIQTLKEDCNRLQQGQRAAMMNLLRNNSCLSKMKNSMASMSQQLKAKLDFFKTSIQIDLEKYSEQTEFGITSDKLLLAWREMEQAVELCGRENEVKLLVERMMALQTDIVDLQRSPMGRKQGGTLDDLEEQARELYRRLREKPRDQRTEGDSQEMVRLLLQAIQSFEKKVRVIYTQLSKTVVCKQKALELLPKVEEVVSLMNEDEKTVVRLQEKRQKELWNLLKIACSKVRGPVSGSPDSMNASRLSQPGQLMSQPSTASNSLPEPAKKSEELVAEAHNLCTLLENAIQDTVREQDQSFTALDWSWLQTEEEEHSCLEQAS
Description: as §1, §2

PKACα = molecular target: T3, PKACα (Homo sapiens, UniProt P17612)
T3 construct: purchased Eurofins DiscoverX, LLC; host or cells: E. coli BL21-derived host (T7 phage) or HEK-293
Description: as §1, §2

BMPR2 = molecular target: T4, BMPR2 (Homo sapiens, UniProt Q13873)
T4 construct: purchased Eurofins DiscoverX, LLC; host or cells: E. coli BL21-derived (T7 phage) or HEK-293
T4 sequence (Q13873 27-1038): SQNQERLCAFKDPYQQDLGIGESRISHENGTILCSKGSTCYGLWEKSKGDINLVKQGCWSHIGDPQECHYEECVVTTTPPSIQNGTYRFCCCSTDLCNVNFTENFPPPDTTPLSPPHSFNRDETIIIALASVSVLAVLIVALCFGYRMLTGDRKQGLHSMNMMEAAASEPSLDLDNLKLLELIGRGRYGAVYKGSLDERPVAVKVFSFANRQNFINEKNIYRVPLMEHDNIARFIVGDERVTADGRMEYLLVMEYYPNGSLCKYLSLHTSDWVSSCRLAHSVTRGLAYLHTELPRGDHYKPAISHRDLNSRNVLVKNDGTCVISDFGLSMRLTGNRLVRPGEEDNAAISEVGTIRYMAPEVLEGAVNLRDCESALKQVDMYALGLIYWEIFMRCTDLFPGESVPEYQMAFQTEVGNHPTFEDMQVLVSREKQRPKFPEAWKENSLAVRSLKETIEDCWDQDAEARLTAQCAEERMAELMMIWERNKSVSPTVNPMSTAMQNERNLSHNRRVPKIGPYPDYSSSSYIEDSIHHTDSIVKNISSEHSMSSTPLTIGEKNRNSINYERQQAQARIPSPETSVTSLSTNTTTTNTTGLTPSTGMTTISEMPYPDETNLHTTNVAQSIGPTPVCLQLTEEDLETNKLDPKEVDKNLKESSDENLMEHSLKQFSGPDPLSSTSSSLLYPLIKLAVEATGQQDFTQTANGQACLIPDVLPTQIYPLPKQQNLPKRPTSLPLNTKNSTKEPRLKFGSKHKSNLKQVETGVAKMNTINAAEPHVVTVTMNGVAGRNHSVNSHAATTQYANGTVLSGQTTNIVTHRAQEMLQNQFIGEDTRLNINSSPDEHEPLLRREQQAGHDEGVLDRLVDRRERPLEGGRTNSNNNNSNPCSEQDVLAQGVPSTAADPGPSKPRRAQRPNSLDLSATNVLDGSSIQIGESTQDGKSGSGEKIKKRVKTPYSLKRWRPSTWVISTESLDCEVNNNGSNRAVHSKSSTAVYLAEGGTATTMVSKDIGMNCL
Description: as §1, §2

T1 sequence (P16234 24-1089): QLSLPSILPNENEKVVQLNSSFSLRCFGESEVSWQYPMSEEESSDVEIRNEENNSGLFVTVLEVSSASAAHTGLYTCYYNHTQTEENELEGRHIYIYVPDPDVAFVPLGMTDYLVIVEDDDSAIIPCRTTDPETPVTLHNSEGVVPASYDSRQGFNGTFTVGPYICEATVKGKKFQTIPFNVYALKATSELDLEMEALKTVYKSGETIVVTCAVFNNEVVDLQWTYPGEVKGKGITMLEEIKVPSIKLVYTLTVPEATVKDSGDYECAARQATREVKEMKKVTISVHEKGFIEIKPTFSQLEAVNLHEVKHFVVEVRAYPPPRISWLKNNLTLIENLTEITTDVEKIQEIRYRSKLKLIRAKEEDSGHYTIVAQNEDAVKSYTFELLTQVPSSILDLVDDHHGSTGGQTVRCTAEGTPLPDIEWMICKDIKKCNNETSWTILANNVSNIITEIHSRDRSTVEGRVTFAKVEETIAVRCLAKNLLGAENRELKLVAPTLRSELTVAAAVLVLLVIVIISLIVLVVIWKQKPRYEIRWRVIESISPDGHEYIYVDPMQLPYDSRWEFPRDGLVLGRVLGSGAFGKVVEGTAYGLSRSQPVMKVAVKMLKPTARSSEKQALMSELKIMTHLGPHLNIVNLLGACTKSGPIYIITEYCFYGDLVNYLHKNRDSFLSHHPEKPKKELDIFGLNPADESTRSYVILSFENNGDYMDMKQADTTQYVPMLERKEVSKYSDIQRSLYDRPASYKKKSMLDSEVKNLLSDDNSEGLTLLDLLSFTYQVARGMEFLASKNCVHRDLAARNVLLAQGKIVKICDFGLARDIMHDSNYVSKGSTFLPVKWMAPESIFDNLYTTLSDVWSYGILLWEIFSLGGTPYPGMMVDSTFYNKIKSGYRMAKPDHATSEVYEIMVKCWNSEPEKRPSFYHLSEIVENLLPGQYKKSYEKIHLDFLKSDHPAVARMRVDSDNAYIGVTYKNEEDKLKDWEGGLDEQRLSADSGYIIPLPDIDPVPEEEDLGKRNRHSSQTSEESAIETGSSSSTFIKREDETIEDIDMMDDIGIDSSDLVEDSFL

In the case of `CC(C)Cn1ncc2cc(Cc3ccc(F)cc3F)c(C(=O)NCCN(C)C)cc21` [Compound 94, 5-(2,4-Difluorobenzyl)-N-(2-(dimethylamino)ethyl)-1-isobutyl-1H-indazole-6-carboxamide], the “RA @ 1000nM” value (PDGFRA) is reported as 96%, the “RA @ 10000nM” value (PDGFRA) is reported as 76% and the “RA @ 1000nM” value (IKKβ) is reported as 89%. The “RA @ 10000nM” value (IKKβ) was 89%, the “RA @ 1000nM” value (PKACα) was 100% and the “RA @ 10000nM” value (PKACα) was 96%. For the same molecule, the “RA @ 1000nM” value (BMPR2) was 86% and the “RA @ 10000nM” value (BMPR2) was 95%.
For `CN(C)CCNC(=O)c1cc2c(cnn2CC2CCCCC2)cc1Cc1ccc(F)cc1F` [Compound 95, 1-(Cyclohexylmethyl)-5-(2,4-difluorobenzyl)-N-(2-(dimethylamino)ethyl)-1H-indazole-6-carboxamide], the “RA @ 1000nM” value (PDGFRA) was 92%, the “RA @ 10000nM” value (PDGFRA) was 92% and the “RA @ 1000nM” value (IKKβ) was 93%. The “RA @ 10000nM” value (IKKβ) was 80%, the “RA @ 1000nM” value (PKACα) was 100% and the “RA @ 10000nM” value (PKACα) was 94%. The “RA @ 1000nM” value (BMPR2) was 89% and the “RA @ 10000nM” value (BMPR2) was 92%.
